According to US20030134859A1 (SANKYO COMPANY, LIMITED, priority 2000, published 2003):

What follows are molecules tested on Mouse preadipocyte strain 3T3-L1 (assay: Inhibition of differentiation as an indication of acetic acid uptake). Settings: 0.1 μM test substance, control (0.01% dimethylsulfoxide) = 100%.
Assay type: cell-based
How it was run: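 Differentiation is indexed by 1 hr [2-14C]acetic acid incorporation, measured by scintillation counting and given as uptake relative to 0.01% DMSO control (100%). Mouse 3T3-L1 preadipocytes, pre-grown 10 days, received 0.1 μM test substance throughout a 4-day insulin/IBMX/dexamethasone induction, followed by 2 days' maintenance culture.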
With “N-[4-(Pyrrolidinylsulfonyl)phenyl]-(2-chloro-5-nitrophenyl)carboxamide [Example 152]” the “Rate of Uptake (%) of [2-14C] acetic acid” value was 69.6%.

Same assay, conditions: Mus musculus, 3T3-L1, 0.1 μM test substance, control (0.01% dimethylsulfoxide) = 100%, read-out: Rate of Uptake (%) of [2-14C] acetic acid
Molecule O=C(Nc1nc(-c2cccc3ccccc23)cs1)c1cc([N+](=O)[O-])ccc1Cl [Example 41, N-[4-(1-Naphthyl)thiazol-2-yl]-(2-chloro-5-nitrophenyl)carboxamide] has an activity at 0.1 µM of 53.8%. CCc1ccc(-c2csc(NC(=O)c3cc([N+](=O)[O-])ccc3Cl)n2)cc1 [Example 44, N-[4-(4-Ethylphenyl)thiazol-2-yl]-(2-chloro-5-nitrophenyl)carboxamide] was tested, and the activity at 0.1 µM was 67.6%. Molecule Cc1ccc(-c2nc(NC(=O)c3cc([N+](=O)[O-])ccc3Cl)sc2C)cc1Cl [Example 46, N-[4-(3-Chloro-4-methylphenyl)-5-methylthiazol-2-yl]-(2-chloro-5-nitrophenyl)carboxamide] has an activity at 0.1 µM of 67%. With Cc1nc(NC(=O)c2cc([N+](=O)[O-])ccc2Cl)sc1C [Example 47] the activity at 0.1 µM was 63.1%. O=C(Nc1cccnc1)c1cc([N+](=O)[O-])ccc1Cl [Example 50, N-(3-Pyridyl)-(2-chloro-5-nitrophenyl)carboxamide] showed an activity at 0.1 µM of 61.4%. Cc1cccc(NC(=O)c2cc([N+](=O)[O-])ccc2Cl)n1 [Example 51, N-(6-Methylpyridin-2-yl)-(2-chloro-5-nitrophenyl)carboxamide] showed an activity at 0.1 µM of 57.5%. In the case of Cc1ccc(NC(=O)c2cc([N+](=O)[O-])ccc2Cl)nc1 [Example 52, N-(5-Methylpyridin-2-yl)-(2-chloro-5-nitrophenyl)carboxamide], the activity at 0.1 µM was 52.3%. O=C(Nc1ccc2c3c(cccc13)CC2)c1cc([N+](=O)[O-])ccc1Cl [Example 54, N-(Acenaphthen-5-yl)-(2-chloro-5-nitrophenyl)carboxamide] was tested, and the activity at 0.1 µM was 51.3%. For O=C(Nc1cccc2cccnc12)c1cc([N+](=O)[O-])ccc1Cl [Example 57, N-(8-Quinolinyl)-(2-chloro-5-nitrophenyl)carboxamide], the activity at 0.1 µM was 58.4%. For Cc1ccnc(NC(=O)c2cc([N+](=O)[O-])ccc2Cl)n1 [Example 65, N-(4-Methylpyrimidin-2-yl)-(2-chloro-5-nitrophenyl)carboxamide], the activity at 0.1 µM was 63.4%. COC(=O)c1sccc1NC(=O)c1cc([N+](=O)[O-])ccc1Cl [Example 66, N-(2-Methoxycarbonylthiophen-3-yl)-(2-chloro-5-nitrophenyl)carboxamide] was tested, and the activity at 0.1 µM was 70.7%. With Cc1cc(Cl)nc(NC(=O)c2cc([N+](=O)[O-])ccc2Cl)n1 [Example 78, N-(4-Chloro-6-methylpyrimidin-2-yl)-(2-chloro-5-nitrophenyl)carboxamide] the activity at 0.1 µM was 68.2%. With Cn1c(NC(=O)c2cc([N+](=O)[O-])ccc2Cl)nc2ccccc21 [Example 82, N-(1-Methylbenzimidazol-2-yl)-(2-chloro-5-nitrophenyl)carboxamide] the activity at 0.1 µM was 83%. O=C(Nc1nncs1)c1cc([N+](=O)[O-])ccc1Cl [Example 85, N-(1,3,4-Thiadiazol-2-yl)-(2-chloro-5-nitrophenyl)carboxamide] showed an activity at 0.1 µM of 67.1%. In the case of O=C(Nc1cccc2nsnc12)c1cc([N+](=O)[O-])ccc1Cl [Example 86, N-(2,1,3-Benzothiazol-4-yl)-(2-chloro-5-nitrophenyl)carboxamide], the activity at 0.1 µM was 51.7%. In the case of CC(C)(C)OC(=O)Nc1ccc(-c2ccc(NC(=O)c3cc([N+](=O)[O-])ccc3Cl)cc2)cc1 [Example 87, N-[4-[4-(tert-Butoxycarbonylamino)phenyl]phenyl]-(2-chloro-5-nitrophenyl)carboxamide], the activity at 0.1 µM was 57.1%. In the case of O=C(Nc1ccc(S(=O)(=O)Nc2nccs2)cc1)c1cc([N+](=O)[O-])ccc1Cl [Example 96, N-[4-(Thiazol-2-yl)aminosulfonyl]phenyl-(2-chloro-5-nitrophenyl)carboxamide], the activity at 0.1 µM was 98.7%. O=C(Nc1ccc(S(=O)(=O)Nc2ccc(Cl)nn2)cc1)c1cc([N+](=O)[O-])ccc1Cl [Example 102, N-[4-[(6-Chloropyridazin-3-yl)aminosulfonyl]phenyl]-(2-chloro-5-nitrophenyl)carboxamide] showed an activity at 0.1 µM of 76.8%. COc1cnc(NS(=O)(=O)c2ccc(NC(=O)c3cc([N+](=O)[O-])ccc3Cl)cc2)nc1 [Example 105, N-[4-[(5-Methoxypyrimidin-2-yl)aminosulfonyl]phenyl]-(2-chloro-5-nitrophenyl)carboxamide] gave an activity at 0.1 µM of 89.4%. With N=C(N)NS(=O)(=O)c1ccc(NC(=O)c2cc([N+](=O)[O-])ccc2Cl)cc1 [Example 106, N-[4-(Amidinoaminosulfonyl)phenyl]-(2-chloro-5-nitrophenyl)carboxamide] the activity at 0.1 µM was 82%. O=C(Nc1ccc(S(=O)(=O)Nc2ccnn2-c2ccccc2)cc1)c1cc([N+](=O)[O-])ccc1Cl [Example 108, N-[4-[(2-Phenyl-(2H)-pyrazol-3-yl)aminosulfonyl]phenyl]-(2-chloro-5-nitrophenyl)carboxamide] was tested, and the activity at 0.1 µM was 87.7%. For O=C(Nc1nnc(-c2ccccc2)s1)c1cc([N+](=O)[O-])ccc1Cl [Example 110, N-(5-Phenyl-[1,3,4]thiadiazol-2-yl)-(2-chloro-5—nitrophenyl)carboxamide], the activity at 0.1 µM was 84.6%. O=C(Nc1nc(-c2ccc(F)c(F)c2)cs1)c1cc([N+](=O)[O-])ccc1Cl [Example 111, N-[4-(3,4-Difluorophenyl)thiazol-2-yl]-(2-chloro-5-nitrophenyl)carboxamide] gave an activity at 0.1 µM of 61.2%. With Cc1ccc(S(=O)(=O)Nc2ccc(NC(=O)c3cc([N+](=O)[O-])ccc3Cl)cc2)cc1 [Example 116, N-[4-(4-Toluenesulfonylamino)phenyl]-(2-chloro-5-nitrophenyl)carboxamide] the activity at 0.1 µM was 95.1%. With CC(=O)Nc1ccc(NC(=O)c2cc([N+](=O)[O-])ccc2Cl)cc1 [Example 117, N-(4-Acetylaminophenyl)-(2-chloro-5-nitrophenyl)carboxamide] the activity at 0.1 µM was 87%. With O=C(Nc1ccc(NC(=O)c2cc([N+](=O)[O-])ccc2Cl)cc1)c1ccccc1 [Example 119, N-(4-Benzoylaminophenyl)-(2-chloro-5-nitrophenyl)carboxamide] the activity at 0.1 µM was 65.7%. With O=C(Nc1ccc(S(=O)(=O)Nc2cccnc2)cc1)c1cc([N+](=O)[O-])ccc1Cl [Example 178] the activity at 0.1 µM was 66.2%.
